The subject of data set [1] is colon cancer cell line SW480. The experiment in a line: Cell proliferation assay using crystal violet, SW480. The format is cell-based. To be noted: Homo sapiens, n = 3, 24 h incubation. On the procedure:
(§1) For quantification, cells are treated with crystal violet, a dye that stains proteins. After washing away of excess dye, the remaining crystal violet is dissolved in a sodium citrate solution. The solution is analyzed photometrically at 590 nm. The optical density of this solution depends on the concentration of crystal violet and therefore on the amount of cells. […] To reduce effects of evaporation, only the inner 60 wells of 96-well plates (coated with 0.1% gelatine solution for studies with HUVEC) were used for experiments.
(§2) Cells were seeded at a density of 5 000 cells per well in 100 μl growth medium (HUVEC) or 20 000 (HCT116), 15 000 (SW480 and 518A2) or 10 000 (HT29) cells per well in 200 μl growth medium in 55 wells per plate. 5 wells were filled with medium only. Additionally, a 96-well plate with cells in 12 wells and medium in 6 wells was prepared as T0-plate. The next day, additional 98 μl of growth medium were added in every well (only HUVEC).
(§3) Cells were treated with 2 μl of the working solution 24 h after seeding. Final compound concentrations in the well were 10 μM for the first round of screening. The final DMSO concentration was 0.5%. […] After finishing the addition of compounds, the T0-plate was stained with crystal violet for giving the cell density at time point zero. Before staining, the growth medium was poured away. Wells were filled with 50 μl crystal violet solution for 10 min. Then the staining solution was washed away with water. Since crystal violet is environmentally hazardous the waste was collected and disposed in an appropriate manner. After air drying of the plates the crystal violet on the cells was dissolved in 100 μl of sodium citrate solution, and the absorption was measured with a plate reader at 590 nm.
(§4) Mean values were corrected with the absorption of stained medium and the corrected absorption of T0 cells. Cell growth was calculated relative to DMSO control for data comparison. IC50 values (50% inhibition of cell growth) were determined with GraphPad Prism® (Version 4.03) using nonlinear regression (sigmoidal dose-response with variable slope).
(§5) Compounds showing an inhibition of proliferation of more than 50% at a concentration of 10 μM were defined as active, and their IC50-values were determined.

In data set [2] the test system is colon cancer cell line HT29. The experiment in a line: Cell proliferation assay using crystal violet, HT29. Format: cell-based. To be noted: Homo sapiens, HT-29, n = 3, 24 h incubation. On the procedure:
as §1, §2, §3
Mean values were corrected with the absorption of stained medium and the corrected absorption of T0 cells. Cell growth was calculated relative to DMSO control for data comparison. IC50 values (50% inhibition of cell growth) were determined with GraphPad Prism® (Version 4.03) using nonlinear regression (sigmoidal dose-response with variable slope). […]

Data set [3] has as its system melanoma cell line 518A2. The experiment in a line: Cell proliferation assay using crystal violet, 518A2. To be noted: Homo sapiens, 518A2; crystal violet assay; n = 3; 48 h incubation. Format: cell-based. As for the experimental part:
as §1, §2, §3, §4, §5

The next data set deals with HCT116 cell line. The experiment in a line: Cell proliferation assay using crystal violet, HCT116. As to conditions: Homo sapiens, HCT-116, n = 3, 24 h incubation. Format: cell-based. On the procedure: as §1, §2, §3
(§6) Mean values were corrected with the absorption of stained medium and the corrected absorption of T0 cells. Cell growth was calculated relative to DMSO control for data comparison.

The next data set deals with HUVEC. The data set is described as follows: Cell proliferation assay using crystal violet, HUVEC. The format is cell-based. As to conditions: Homo sapiens, n = 3, 48 h incubation, read-out: IC50 (nM) HUVEC (converted). On the procedure: as §1, §2, §3, §6
The subject of data set [4] is melanoma cell line 518A2. As to conditions: stated as comparison, no experiment described; read-out: IC50 value of cisplatin, comparison for melanoma cell line 518A2; cited from earlier work.
Data set [5] has as its system healthy peripheral blood mononuclear cells (PBMC). The experiment in a line: Effect on healthy PBMC (CellTiter-Blue viability). To be noted: 48 h incubation; one individual; FIG. 8. As for the experimental part: FIG. 8: Effect of compounds 1 and 22 according to the invention as well as the control drugs fludarabine and cyclophosphamide on the viability of healthy peripheral blood mononuclear cells (PBMC) in suspension culture after 48 h incubation. Data points represent one individual calculated in relation to the control. Viability was measured using the CellTiter Blue assay (Promega, Madison, Wis., USA), and cells incubated in solvent only were used as control.
For quantification, cells were treated with resazurin (7-hydroxy-3H-phenoxazin-3-one 10-oxide) as indicator of cell viability. The method is based on the finding that living cells are able to reduce the non-fluorescent blue dye into the pink colored and highly red fluorescent resorufine. After adding the substrate the cells are incubated for 2 to 4 hours. Then, the solution is analyzed at 560 nm Ex/590 nm Em on a fluorometer. Appropriate cell density for seeding and duration of treatment with the substrate were determined in preliminary experiments.
First, cells were seeded in 96 well plates and then growth medium was added to each well to get a final volume of 80 μl. Compounds to be tested were diluted with medium from a 10 mM stock solution in DMSO to get different concentrations, and 20 μl of these solutions were added to the wells. The final DMSO concentration was 0.5%. All treatments and controls were performed in at least triplicates. Cells were incubated at 37° C. and 5% CO2 for 48 h. Then, 20 μl substrate solution was added to the wells, plates were incubated for 3 hours and analyzed.
The impact of the compounds according to the invention on healthy cells was assessed using peripheral blood mononuclear cells (PBMC). Cell viability was tested using the CellTiter-Blue Cell Viability Assay (Promega, Madison, Wis., USA) as described in Example 7.

Data set [6] relates to CLL cell lines MEC-1 and MEC-2. The data set is described as follows: Annexin V-FITC / propidium iodide staining, apoptosis in CLL cell lines. As to conditions: MEC-1 cells, 500 nM, 48 hours (FIG. 4b); called an outlier, not seen after 24 hours. Format: cell-based. As for the experimental part:
Apoptosis was detected using propidium iodide/Annexin V FACS staining (Bender MedSystems).
Annexin V binds to phosphatidylserine which is exposed at the cell surface during execution of apoptosis. First, cells were seeded out at a density of 1.5 to 2.5 million cells per well in 12 well plates and then growth medium was added to each well to get a final volume of 2.5 ml. Compounds to be tested were diluted with medium from a 10 mM stock solution in DMSO to get different concentrations and cells were treated with 25 μl of these solutions. The final DMSO concentration was 0.5%. All treatments and controls were performed twice. Cells were incubated at 37° C. and 5% CO2 for 24 h and 48 h. Then, growth medium was removed by centrifugation, the supernatant discarded and 200 μl of an Annexin V solution were added. After 10 minutes in the dark, cells were washed once with Annexin buffer and the solution removed by centrifugation. The supernatant was discarded again and cells were suspended in 200 μl of a propidium iodide solution. Cells were measured by flow cytometry with a total of 10 000 events. Data were analyzed with CellQuest Pro™.
Compounds 1 and 22 were also tested on the CLL cell lines MEC-1 and MEC-2 in comparison with fludarabine and cyclophosphamide, two compounds used in the treatment of hematological malignancies (MEC-1 is a fludarabine-resistant cell line).

Like-named read-outs stand apart in the source and are kept apart here. Where only a bound is given, the exact number is not on record here.

This is an account of results in patent publication US20130123367A1, “VINYLOGOUS CHALCONE DERIVATIVES AND THEIR MEDICAL USE” (MEDIZINISCHE UNIVERSITAT WIEN, priority 2010, published 2013).

In general, IC50 refers to the concentration that gives 50% inhibition. Take `COc1ccccc1/C=C/C=C/C(=O)c1cc(OC)c(O)c(OC)c1`: the IC50 in data set [1] was 2680 nM; in data set [2], 5790 nM; with melanoma cell line 518A2 [3], 2750 nM. The matching figures for `COc1cc(C(=O)/C=C/C=C/c2ccccc2SC)cc(OC)c1OC`: 260 nM, 240 nM and 160 nM. In the data set on HCT116 cell line, `COc1cc(C(=O)/C=C/C=C/c2ccccc2)cc(OC)c1OC` showed an IC50 of 4340 nM.

For `COc1cccc(/C=C/C=C/C(=O)c2cc(OC)c(OC)c(OC)c2)c1`, the IC50 in the data set on HUVEC was 3210 nM; in the data set on HCT116 cell line, 4500 nM.

Take `COc1cc(C(=O)/C=C/C=C/c2ccccc2Cl)cc(OC)c1OC`: the IC50 with HUVEC is 1770 nM. As to `COc1cccc(/C=C/C=C/C(=O)c2ccccc2OC)c1`, the results for the IC50 with HUVEC and in the data set with HCT116 cell line were 8810 nM and more than 10000 nM, respectively. Consider `COc1ccccc1/C=C/C=C/C(=O)c1ccc(Cl)c([N+](=O)[O-])c1`, for which the concentration for half-maximal inhibition (IC50) in the data set with HUVEC is 5630 nM. With `C=Cc1ccccc1/C=C/C=C/C(=O)c1ccccc1OC`, the IC50 was 760 nM in the data set with HUVEC and 804 nM with HCT116 cell line.

Consider `CCOc1ccccc1C(=O)/C=C/c1ccc(OC)c2ccccc12`, for which the IC50 (in data set [1]; in the data set on melanoma cell line 518A2 [3]) was more than 10000 nM in each case. As for `COc1ccc(C(=O)/C=C/c2ccc(OC)c3ccccc23)cc1OC`, the IC50 in the data set on HUVEC and in the data set on HCT116 cell line was more than 10000 nM each time. `COc1ccccc1C(=O)/C=C/c1ccc(OC)c2ccccc12` had an IC50 in the data set with HCT116 cell line of 6850 nM.

`N.N.[Cl][Pt][Cl]` [cisplatin]: the IC50 in the data set with melanoma cell line 518A2 [4] is approximately 10 µM. `O=P1(N(CCCl)CCCl)NCCCO1` (stereo not drawn) [cyclophosphamide, reference compound]: the “viability of healthy PBMC in suspension culture (toxicity)” value in data set [5] was “did not influence viability”. This molecule came in with an apoptosis induction in data set [6] of 40%.

In the case of `Nc1nc(F)nc2c1ncn2[C@@H]1O[C@H](CO)[C@@H](O)[C@@H]1O` [fludarabine, reference compound], the “viability of healthy PBMC in suspension culture (toxicity)” value in data set [5] is “the most toxic of the tested compounds”.
